The values below are quoted from earlier work in PubChem BioAssay AID1259410 (Chemical Carcinogenesis Research Information System (CCRIS), 2018).

The subject of this series is rodent tumor promotion studies, tumor incidence. In words: CCRIS tumor promotion studies.

As to `ClC1=C(Cl)C2(Cl)C3C(Cl)C=CC3C1(Cl)C2(Cl)Cl` (configuration not stated), the outcome (Carcinogen: DIETHYLNITROSAMINE, 55-18-5, Doses [Carcinogen]: 20 PPM IN DRINKING WATER FOR 14 WK, Doses [Promoter]: 0, 5, 10 PPM TECHNICAL GRADE IN DIET BEGINNING 4 WK POST LAST CARCINOGEN DOSE AND CONTINUING FOR 25 WK (STUDY DURATION:, Doses [Promoter]: 0, 5, 10 PPM TECHNICAL GRADE IN DIET BEGINNING 4 WK POST LAST CARCINOGEN DOSE AND CONTINUING FOR 25 WK (STUDY DURATION:, Route [Carcinogen]: ORAL, Route [Promoter]: ORAL, Species: MOUSE, Strain/Sex: B6C3F1/MALE) is reported as “liver: adenoma or carcinoma”.
For `C[C@H](CCC(=O)O)[C@H]1CC[C@H]2[C@@H]3[C@H](O)C[C@@H]4C[C@H](O)CC[C@]4(C)[C@H]3CC[C@]12C`, the outcome (Carcinogen: 3-METHYLCHOLANTHRENE, 56-49-5, Doses [Carcinogen]: 3 MG IN BEESWAX PELLET, Doses [Promoter]: 0, 3 MG IN BEESWAX PELLET (STUDY DURATION: 5 MO), Route [Carcinogen]: IMPLANT, Route [Promoter]: IMPLANT, Species: HAMSTER) is “gallbladder: tumor” and the outcome (Doses [Carcinogen]: IR, Route [Carcinogen]: RECTAL, Route [Promoter]: RECTAL, Species: RAT, Strain/Sex: FEMALE) was “colon”.
As to `S=c1nc[nH]c2nc[nH]c12`, the outcome (Carcinogen: UV IRRADIATION, Doses [Carcinogen]: 0.53 J/CM2 INCREASED BY 20% EVERY 2 WK TO 1.60 J/CM2 AND MAINTAINED AT 1.60 J/CM2 UNTIL DEATH, ADMINISTERED 5 D/WK FOR 1, Doses [Promoter]: 0, 15 UG/G BEGINNING 2 WK POST FIRST CARCINOGEN DOSE ADMINISTERED 2 HR PRIOR TO EACH CARCINOGEN DOSE (STUDY DURATION: 30, Route [Carcinogen]: DERMAL, Route [Promoter]: INTRAPERITONEAL, Species: MOUSE, Strain/Sex: SKH/HRL/FEMALE) is given as “skin: tumor”.
Turning to `COc1ccc(O)cc1`, where the note is “Carcinogen: DIETHYLNITROSAMINE, 55-18-5, N-METHYLNITROSOUREA, 684-93-5, 1,2-DIMETHYLHYDRAZINE, 540-73-8, N-BUTYL-N-(4-HYDROXYBUTYL)N, Carcinogen: DIETHYLNITROSAMINE, 55-18-5, N-METHYLNITROSOUREA, 684-93-5, 1,2-DIMETHYLHYDRAZINE, 540-73-8, N-BUTYL-N-(4-HYDROXYBUTYL)N, Doses [Carcinogen]: 100 MG/KG BW DEN ONCE FOLLOWED BY 20 MG/KG BW MNU 2/WK FOR 2 WK THEN 40 MG/KG BW DMH 2/WK FOR THE NEXT 2 WK, 0.05% BBN I, Doses [Promoter]: 0, 0.4% IN DIET FOR 24 WK BEGINNING POST CARCINOGEN TREATMENT (STUDY DURATION: 28 WK), Route [Carcinogen]: INTRAPERITONEAL, INTRAPERITONEAL, SUBCUTANEOUS, ORAL, Route [Carcinogen]: INTRAPERITONEAL, INTRAPERITONEAL, SUBCUTANEOUS, ORAL, Route [Promoter]: ORAL, Species: RAT, Strain/Sex: F344/MALE”, the outcome is “forestomach: papilloma”.
With `O=[N+]([O-])c1ccc(F)c([N+](=O)[O-])c1`, the outcome is, setting by setting: (Carcinogen: 7,12-DIMETHYLBENZ[A]ANTHRACENE, 57-97-6, Doses [Carcinogen]: 2.5 UG IN 200 µL ACETONE ONCE, Doses [Promoter]: 0, 0.1, 0.2% IN ACETONE/OLIVE OIL (4:1) 2/WK FOR 52 WK BEGINNING 2 WK POST CARCINOGEN DOSE (STUDY DURATION: 54 WK), Doses [Promoter]: 0, 0.1, 0.2% IN ACETONE/OLIVE OIL (4:1) 2/WK FOR 52 WK BEGINNING 2 WK POST CARCINOGEN DOSE (STUDY DURATION: 54 WK), Route [Carcinogen]: DERMAL, Route [Promoter]: DERMAL, Species: MOUSE, Strain/Sex: SENCAR/FEMALE) “skin: tumor”; (Carcinogen: 7,12-DIMETHYLBENZ[A]ANTHRACENE, 57-97-6, Doses [Carcinogen]: 100 NMOL ONCE, Doses [Promoter]: 0, 0.1, 0.2% 2/WK FOR 27 WK BEGINNING 2 WK POST CARCINOGEN DOSE (STUDY DURATION: 59 WK), Doses [Promoter]: 0, 0.1, 0.2% 2/WK FOR 27 WK BEGINNING 2 WK POST CARCINOGEN DOSE (STUDY DURATION: 59 WK), Route [Carcinogen]: DERMAL, Route [Promoter]: DERMAL, Species: MOUSE, Strain/Sex: SENCAR/FEMALE) “skin: tumor”.
Consider `Oc1ccc(Cl)cc1Cc1ccccc1`, for which the outcome (Carcinogen: 7,12-DIMETHYLBENZ[A]ANTHRACENE, 57-97-6, Doses [Carcinogen]: 50 UG IN ACETONE ONCE, Doses [Promoter]: 3 MG IN ACETONE 3/WK FOR 51 WK (STUDY DURATION: 52 WK), Route [Carcinogen]: DERMAL, Route [Promoter]: DERMAL, Species: MOUSE, Strain/Sex: CD-1/FEMALE) is recorded as “skin: papilloma”.
As for `O=NN1CCCC1`, under “Carcinogen: N-BUTYL-N-4(HYDROXYBUTYL)NITROSAMINE, 3817-11-6, Doses [Carcinogen]: 0.05% IN DRINKING WATER FOR 2 WK, Doses [Promoter]: 0, 0.02% IN DIET STARTING POST CARCINOGEN AND CONTINUING FOR 22 WK, LEFT URETER LIGATED 8 D POST CARCINOGEN (STUDY DURAT, Route [Carcinogen]: ORAL, Route [Promoter]: ORAL, Species: RAT, Strain/Sex: F344/MALE”, the outcome is listed as “bladder: papilloma”.
Regarding `CCCCCCCC/C=C/CCCCCCCC(=O)OCCOCC(OCCO)C1OCC(OCCO)C1OCCO` (configuration not stated), the outcome (Carcinogen: 7,12-DIMETHYLBENZ(A)ANTHRACENE, Doses [Carcinogen]: TOP, Route [Carcinogen]: DERMAL, Route [Promoter]: DERMAL, Species: MOUSE, Strain/Sex: FEMALE) is reported as “integumentary system (skin)”.
Regarding `CC(C)(C)c1ccc(O)c(O)c1`, the outcome (Carcinogen: N-METHYL-N'-NITRO-N-NITROSOGUANIDINE, 70-25-7, Doses [Carcinogen]: 150 MG/KG IN DMSO ONCE, Doses [Promoter]: 0, 1.5% IN DIET FOR 51 WK BEGINNING 1 WK AFTER CARCINOGEN DOSE (STUDY DURATION: 52 WK), Route [Carcinogen]: GAVAGE, Route [Promoter]: ORAL, Species: RAT, Strain/Sex: F344/MALE) is on record as “forestomach: squamous cell carcinoma”.
Regarding H-HADGVFTSDYSRLLGQLSAKKYLESLI-NH2, the outcome (Carcinogen: AZOXYMETHANE, 25843-45-2, Doses [Carcinogen]: 7.4 MG/KG BW IN 0.9% SALINE 1/WK FOR 10 WK, Doses [Promoter]: 0, 4 NMOL/KG BW IN OLIVE OIL 1/2 D FOR DURATION OF STUDY (STUDY DURATION: 35 WK), Route [Carcinogen]: SUBCUTANEOUS, Route [Promoter]: SUBCUTANEOUS, Species: RAT, Strain/Sex: WISTAR/MALE, FEMALE) was “colon: tumor”.
